Reference: the supplement of paper PMC11208160
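Note: IS621 bridge recombinase in Escherichia coli cells against a fixed T5 target plasmid.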

Assay: recombinant UMI read abundance after kanamycin selection (control-corrected) (log10(CPM+1)); higher = more efficient recombination; extreme values may be limits of the assay; sequences stand for … in AGTGCAGAGAAAATCGGCCAGTTTTCTCTGCCTGCAGTCCGCATGCCGTGGGACCCCTTGGGTTCTAACCTGTTGCCTAGATTTATGCAGCGGACTGCCTTTCTCCCAAAGTGATAAACCGG…AGGTTGGTTTCACT; site = the 11-nt donor
Outline: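 Two replicates each of selected and unselected plating were used in this pooled Escherichia coli screen of donor and donor-binding-loop pairs for the IS621 bridge recombinase. Selection was with IPTG (0.07 mM) and kanamycin. Counts of recombinant UMIs, amplified across the donor–target junction, were converted to CPM, averaged, scaled by control-derived factors and reported as log10(CPM+1).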
For “CGGATGGCATGGACCGGTTTTCCCGGTAATCCGTATTTGAA (site CGGATGGCTTT)”, the “recombinant UMI read abundance (log10)” value was 2.15.
In the case of “CGGATTCCATGGACCGGTTTTCCCGGTAATCCGTATTTGCT (site CGGAATCCTAA)”, the “recombinant UMI read abundance (log10)” value is reported as 0.
For “CGGATTCCATGGACCGGTTTTCCCGGTAATCCGTATTTGCT (site CGGATTCCTAG)”, the “recombinant UMI read abundance (log10)” value was 0.
In the case of “CGGCACTCATGGACCGGTTTTCCCGGTAATCCGTATTTGTA (site CGGCACTCTTA)”, the “recombinant UMI read abundance (log10)” value is reported as 3.03.
In the case of “CGGCAGTCATGGACCGGTTTTCCCGGTAATCCGTATTTGCC (site CGGAAGTCTGG)”, the “recombinant UMI read abundance (log10)” value is reported as 0.
For “CGGCAGTCATGGACCGGTTTTCCCGGTAATCCGTATTTGCC (site CGGCAGTCTGG)”, the “recombinant UMI read abundance (log10)” value was 2.22.
With “CGGCAGTCATGGACCGGTTTTCCCGGTAATCCGTATTTGCC (site CGGGAGTCTGG)” the “recombinant UMI read abundance (log10)” value was 0.
In the case of “CGGCAGTCATGGACCGGTTTTCCCGGTAATCCGTATTTGCC (site CGGTAGTCTGG)”, the “recombinant UMI read abundance (log10)” value is reported as 0.
In the case of “CGGCCATCATGGACCGGTTTTCCCGGTAATCCGTATTTGCT (site CGGACATCTAG)”, the “recombinant UMI read abundance (log10)” value is reported as 0.
With “CGGCCATCATGGACCGGTTTTCCCGGTAATCCGTATTTGCT (site CGGCCATCTAG)” the “recombinant UMI read abundance (log10)” value was 1.29.
For “CGGCCATCATGGACCGGTTTTCCCGGTAATCCGTATTTGCT (site CGGGCATCTAG)”, the “recombinant UMI read abundance (log10)” value was 0.0046.
With “CGGCCATCATGGACCGGTTTTCCCGGTAATCCGTATTTGCT (site CGGTCATCTAG)” the “recombinant UMI read abundance (log10)” value was 0.
For “CGGCCCACATGGACCGGTTTTCCCGGTAATCCGTATTTGTG (site CGGCCCACTCA)”, the “recombinant UMI read abundance (log10)” value was 0.024.
In the case of “CGGCCGACATGGACCGGTTTTCCCGGTAATCCGTATTTGTA (site CGGCCGACTTA)”, the “recombinant UMI read abundance (log10)” value is reported as 1.2.
For “CGGCCTCCATGGACCGGTTTTCCCGGTAATCCGTATTTGTT (site CGGAATCCTAA)”, the “recombinant UMI read abundance (log10)” value was 0.0121.
In the case of “CGGCCTCCATGGACCGGTTTTCCCGGTAATCCGTATTTGTT (site CGGCCTCCTAA)”, the “recombinant UMI read abundance (log10)” value is reported as 0.0159.
In the case of “CGGCGCCCATGGACCGGTTTTCCCGGTAATCCGTATTTGAG (site CGGCGCCCTCT)”, the “recombinant UMI read abundance (log10)” value is reported as 0.00618.
For “CGGCGCCCATGGACCGGTTTTCCCGGTAATCCGTATTTGTC (site CGGCGCCCTGA)”, the “recombinant UMI read abundance (log10)” value was 1.85.
With “CGGCTTTCATGGACCGGTTTTCCCGGTAATCCGTATTTGGC (site CGGCTTTCTGC)” the “recombinant UMI read abundance (log10)” value was 0.438.
In the case of “CGGGAAACATGGACCGGTTTTCCCGGTAATCCGTATTTGAT (site CGGGAAACTAT)”, the “recombinant UMI read abundance (log10)” value is reported as 2.27.
For “CGGGAAACATGGACCGGTTTTCCCGGTAATCCGTATTTGAT (site CGGGAACCTAT)”, the “recombinant UMI read abundance (log10)” value was 0.00381.
For “CGGGAAACATGGACCGGTTTTCCCGGTAATCCGTATTTGAT (site CGGGAAGCTAT)”, the “recombinant UMI read abundance (log10)” value was 2.21.
For “CGGGAAACATGGACCGGTTTTCCCGGTAATCCGTATTTGAT (site CGGGAATCTAT)”, the “recombinant UMI read abundance (log10)” value was 1.74.
With “CGGGAACCATGGACCGGTTTTCCCGGTAATCCGTATTTGAT (site AGGGAACCTAT)” the “recombinant UMI read abundance (log10)” value was 0.
In the case of “CGGGAACCATGGACCGGTTTTCCCGGTAATCCGTATTTGAT (site CAGGAACCTAT)”, the “recombinant UMI read abundance (log10)” value is reported as 0.
With “CGGGAACCATGGACCGGTTTTCCCGGTAATCCGTATTTGAT (site CCGGAACCTAT)” the “recombinant UMI read abundance (log10)” value was 0.
For “CGGGAACCATGGACCGGTTTTCCCGGTAATCCGTATTTGAT (site CGAGAACCTAT)”, the “recombinant UMI read abundance (log10)” value was 0.
In the case of “CGGGAACCATGGACCGGTTTTCCCGGTAATCCGTATTTGAT (site CGCGAACCTAT)”, the “recombinant UMI read abundance (log10)” value is reported as 0.
With “CGGGAACCATGGACCGGTTTTCCCGGTAATCCGTATTTGAT (site CGGAAACCTAT)” the “recombinant UMI read abundance (log10)” value was 0.
With “CGGGAACCATGGACCGGTTTTCCCGGTAATCCGTATTTGAT (site CGGCAACCTAT)” the “recombinant UMI read abundance (log10)” value was 0.
For “CGGGAACCATGGACCGGTTTTCCCGGTAATCCGTATTTGAT (site CGGGAAACTAT)”, the “recombinant UMI read abundance (log10)” value was 0.
In the case of “CGGGAACCATGGACCGGTTTTCCCGGTAATCCGTATTTGAT (site CGGGAACCTAA)”, the “recombinant UMI read abundance (log10)” value is reported as 0.00496.
In the case of “CGGGAACCATGGACCGGTTTTCCCGGTAATCCGTATTTGAT (site CGGGAACCTAC)”, the “recombinant UMI read abundance (log10)” value is reported as 0.0116.
In the case of “CGGGAACCATGGACCGGTTTTCCCGGTAATCCGTATTTGAT (site CGGGAACCTAG)”, the “recombinant UMI read abundance (log10)” value is reported as 0.
With “CGGGAACCATGGACCGGTTTTCCCGGTAATCCGTATTTGAT (site CGGGAACCTAT)” the “recombinant UMI read abundance (log10)” value was 0.
For “CGGGAACCATGGACCGGTTTTCCCGGTAATCCGTATTTGAT (site CGGGAACCTCT)”, the “recombinant UMI read abundance (log10)” value was 0.
In the case of “CGGGAACCATGGACCGGTTTTCCCGGTAATCCGTATTTGAT (site CGGGAACCTGT)”, the “recombinant UMI read abundance (log10)” value is reported as 0.
In the case of “CGGGAACCATGGACCGGTTTTCCCGGTAATCCGTATTTGAT (site CGGGAACCTTT)”, the “recombinant UMI read abundance (log10)” value is reported as 0.00554.
With “CGGGAACCATGGACCGGTTTTCCCGGTAATCCGTATTTGAT (site CGGGAAGCTAT)” the “recombinant UMI read abundance (log10)” value was 0.
In the case of “CGGGAACCATGGACCGGTTTTCCCGGTAATCCGTATTTGAT (site CGGGAATCTAT)”, the “recombinant UMI read abundance (log10)” value is reported as 0.
For “CGGGAACCATGGACCGGTTTTCCCGGTAATCCGTATTTGAT (site CGGGACCCTAT)”, the “recombinant UMI read abundance (log10)” value was 0.0207.
In the case of “CGGGAACCATGGACCGGTTTTCCCGGTAATCCGTATTTGAT (site CGGGAGCCTAT)”, the “recombinant UMI read abundance (log10)” value is reported as 0.
With “CGGGAACCATGGACCGGTTTTCCCGGTAATCCGTATTTGAT (site CGGGATCCTAT)” the “recombinant UMI read abundance (log10)” value was 0.
For “CGGGAACCATGGACCGGTTTTCCCGGTAATCCGTATTTGAT (site CGGGCACCTAT)”, the “recombinant UMI read abundance (log10)” value was 0.021.
For “CGGGAACCATGGACCGGTTTTCCCGGTAATCCGTATTTGAT (site CGGGGACCTAT)”, the “recombinant UMI read abundance (log10)” value was 0.
For “CGGGAACCATGGACCGGTTTTCCCGGTAATCCGTATTTGAT (site CGGGTACCTAT)”, the “recombinant UMI read abundance (log10)” value was 0.
In the case of “CGGGAACCATGGACCGGTTTTCCCGGTAATCCGTATTTGAT (site CGGTAACCTAT)”, the “recombinant UMI read abundance (log10)” value is reported as 0.
In the case of “CGGGAACCATGGACCGGTTTTCCCGGTAATCCGTATTTGAT (site CGTGAACCTAT)”, the “recombinant UMI read abundance (log10)” value is reported as 0.
With “CGGGAACCATGGACCGGTTTTCCCGGTAATCCGTATTTGAT (site CTGGAACCTAT)” the “recombinant UMI read abundance (log10)” value was 0.
In the case of “CGGGAACCATGGACCGGTTTTCCCGGTAATCCGTATTTGAT (site GGGGAACCTAT)”, the “recombinant UMI read abundance (log10)” value is reported as 0.
In the case of “CGGGAACCATGGACCGGTTTTCCCGGTAATCCGTATTTGAT (site TGGGAACCTAT)”, the “recombinant UMI read abundance (log10)” value is reported as 0.
With “CGGGAACCATGGACCGGTTTTCCCGGTAATCCGTATTTGGT (site CGGGAACCTAA)” the “recombinant UMI read abundance (log10)” value was 0.0297.
For “CGGGAACCATGGACCGGTTTTCCCGGTAATCCGTATTTGGT (site CGGGAACCTAC)”, the “recombinant UMI read abundance (log10)” value was 0.
For “CGGGAACCATGGACCGGTTTTCCCGGTAATCCGTATTTGGT (site CGGGAACCTAG)”, the “recombinant UMI read abundance (log10)” value was 0.
For “CGGGAACCATGGACCGGTTTTCCCGGTAATCCGTATTTGGT (site CGGGAACCTAT)”, the “recombinant UMI read abundance (log10)” value was 0.
For “CGGGAAGCATGGACCGGTTTTCCCGGTAATCCGTATTTGAT (site CGGGAAACTAT)”, the “recombinant UMI read abundance (log10)” value was 1.7.
For “CGGGAAGCATGGACCGGTTTTCCCGGTAATCCGTATTTGAT (site CGGGAACCTAT)”, the “recombinant UMI read abundance (log10)” value was 0.
For “CGGGAAGCATGGACCGGTTTTCCCGGTAATCCGTATTTGAT (site CGGGAAGCTAT)”, the “recombinant UMI read abundance (log10)” value was 1.9.
In the case of “CGGGAAGCATGGACCGGTTTTCCCGGTAATCCGTATTTGAT (site CGGGAATCTAT)”, the “recombinant UMI read abundance (log10)” value is reported as 1.85.
For “CGGGAATCATGGACCGGTTTTCCCGGTAATCCGTATTTGCC (site CGGGAATCTGG)”, the “recombinant UMI read abundance (log10)” value was 2.51.
In the case of “CGGGAATCATGGACCGGTTTTCCCGGTAATCCGTATTTGCC (site CGGGACTCTGG)”, the “recombinant UMI read abundance (log10)” value is reported as 1.28.
With “CGGGAATCATGGACCGGTTTTCCCGGTAATCCGTATTTGCC (site CGGGAGTCTGG)” the “recombinant UMI read abundance (log10)” value was 2.11.
For “CGGGAATCATGGACCGGTTTTCCCGGTAATCCGTATTTGCC (site CGGGATTCTGG)”, the “recombinant UMI read abundance (log10)” value was 0.646.
In the case of “CGGGACCCATGGACCGGTTTTCCCGGTAATCCGTATTTGAT (site CGGGAACCTAT)”, the “recombinant UMI read abundance (log10)” value is reported as 0.00853.
In the case of “CGGGACCCATGGACCGGTTTTCCCGGTAATCCGTATTTGAT (site CGGGACCCTAT)”, the “recombinant UMI read abundance (log10)” value is reported as 0.879.
For “CGGGACCCATGGACCGGTTTTCCCGGTAATCCGTATTTGAT (site CGGGAGCCTAT)”, the “recombinant UMI read abundance (log10)” value was 0.00629.
With “CGGGACCCATGGACCGGTTTTCCCGGTAATCCGTATTTGAT (site CGGGATCCTAT)” the “recombinant UMI read abundance (log10)” value was 0.
With “CGGGACGCATGGACCGGTTTTCCCGGTAATCCGTATTTGTA (site CGGGACGCTTA)” the “recombinant UMI read abundance (log10)” value was 2.82.
